# Laboratory results reported in ChEMBL document CHEMBL3593229, “Identification of a potent 5-phenyl-thiazol-2-ylamine-based inhibitor of FLT3 with activity against drug resistance-conferring point mutations” (Eur J Med Chem, 2015).
# Active and inactive are the calls of the source. No cut-off for these calls is given here.
# Tests used:
# MV4-11 [1] = experiment: Antitumor activity against human MV4-11 cells xenografted in nude mouse assessed as tumor regression at 25 mg/kg, po qd administered on day 8 to 12 measured during 48 days post last dose; type: functional, organism-based
# [2] = target: Serine/threonine-protein kinase Sgk3 (Homo sapiens) (UniProt Q96BR1); experiment: Inhibition of human SGKL at 0.1 uM relative to control
# Serine/threonine-protein kinase Sgk3 (Homo sapiens), sequence (Q96BR1 whole entry): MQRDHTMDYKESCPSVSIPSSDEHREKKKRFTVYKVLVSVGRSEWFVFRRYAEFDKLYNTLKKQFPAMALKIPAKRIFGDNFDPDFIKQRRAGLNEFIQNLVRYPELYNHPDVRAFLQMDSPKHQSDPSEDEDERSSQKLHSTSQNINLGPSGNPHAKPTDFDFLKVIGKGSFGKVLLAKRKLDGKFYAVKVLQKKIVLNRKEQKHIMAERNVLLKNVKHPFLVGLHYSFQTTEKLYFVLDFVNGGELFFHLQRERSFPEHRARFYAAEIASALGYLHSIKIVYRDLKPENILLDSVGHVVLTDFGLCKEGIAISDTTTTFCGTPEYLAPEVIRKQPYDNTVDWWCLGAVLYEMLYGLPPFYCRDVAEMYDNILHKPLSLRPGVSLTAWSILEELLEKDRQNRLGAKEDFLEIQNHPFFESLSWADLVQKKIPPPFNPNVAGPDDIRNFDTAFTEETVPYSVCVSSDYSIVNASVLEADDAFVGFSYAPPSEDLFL
# [3] = target: Glycogen synthase kinase-3 beta (Homo sapiens) (UniProt P49841); experiment: Inhibition of human GSK3B at 0.1 uM relative to control
# Glycogen synthase kinase-3 beta (Homo sapiens), sequence (P49841 whole entry, looked up): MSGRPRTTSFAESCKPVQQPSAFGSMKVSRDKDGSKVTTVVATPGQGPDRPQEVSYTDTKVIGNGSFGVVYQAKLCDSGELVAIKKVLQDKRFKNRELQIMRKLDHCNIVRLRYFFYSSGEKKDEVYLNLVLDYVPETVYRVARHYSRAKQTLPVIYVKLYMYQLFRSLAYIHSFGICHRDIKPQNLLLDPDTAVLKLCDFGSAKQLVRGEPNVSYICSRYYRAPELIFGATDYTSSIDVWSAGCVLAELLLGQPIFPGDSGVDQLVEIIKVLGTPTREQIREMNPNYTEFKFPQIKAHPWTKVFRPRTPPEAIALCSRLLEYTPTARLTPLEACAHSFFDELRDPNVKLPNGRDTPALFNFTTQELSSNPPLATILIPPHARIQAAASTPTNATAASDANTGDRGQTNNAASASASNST
# [4] = test system: Platelet-derived growth factor receptor alpha (Homo sapiens), P16234 [V561D]; experiment: Inhibition of human PDGFRA V561D mutant at 0.1 uM relative to control
# [5] = target: Receptor-type tyrosine-protein kinase FLT3 (Homo sapiens, UniProt P36888, D835Y); experiment: Inhibition of FLT3 ITD D835Y mutant (unknown origin) phosphorylation expressed in HEK293T cells preincubated for 1 hr followed by FLT3 ligand addition for 5 mins by Western blot analysis; type: cell-based, HEK-293T
# [6] = target: Glycogen synthase kinase-3 alpha (Homo sapiens) (UniProt P49840); experiment: Inhibition of human GSK3A at 0.1 uM relative to control
# Glycogen synthase kinase-3 alpha (Homo sapiens), sequence (P49840 2-483 limits assumed): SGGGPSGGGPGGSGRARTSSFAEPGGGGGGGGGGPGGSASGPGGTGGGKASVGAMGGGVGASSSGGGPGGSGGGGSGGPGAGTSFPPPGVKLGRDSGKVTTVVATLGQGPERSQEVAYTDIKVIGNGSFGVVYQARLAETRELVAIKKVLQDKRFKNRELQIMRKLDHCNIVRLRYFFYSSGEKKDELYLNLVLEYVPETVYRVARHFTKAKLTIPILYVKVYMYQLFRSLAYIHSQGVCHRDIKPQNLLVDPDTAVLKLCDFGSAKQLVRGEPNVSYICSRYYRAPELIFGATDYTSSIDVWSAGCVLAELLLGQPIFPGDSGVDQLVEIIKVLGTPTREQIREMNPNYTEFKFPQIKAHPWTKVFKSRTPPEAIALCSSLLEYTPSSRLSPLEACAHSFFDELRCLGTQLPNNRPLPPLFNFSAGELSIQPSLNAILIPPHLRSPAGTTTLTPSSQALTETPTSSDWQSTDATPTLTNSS
# [7] = target: Serine/threonine-protein kinase PLK1 (Homo sapiens) (UniProt P53350); experiment: Inhibition of human PLK1 at 0.1 uM relative to control
# [8] = target: Proto-oncogene tyrosine-protein kinase Src (Homo sapiens) (UniProt P12931); experiment: Inhibition of human SRC at 0.1 uM relative to control
# [9] = target: Dual specificity mitogen-activated protein kinase kinase 1 (Homo sapiens) (UniProt Q02750); experiment: Inhibition of human MEK1 at 0.1 uM relative to control
# Dual specificity mitogen-activated protein kinase kinase 1 (Homo sapiens), sequence (Q02750 whole entry): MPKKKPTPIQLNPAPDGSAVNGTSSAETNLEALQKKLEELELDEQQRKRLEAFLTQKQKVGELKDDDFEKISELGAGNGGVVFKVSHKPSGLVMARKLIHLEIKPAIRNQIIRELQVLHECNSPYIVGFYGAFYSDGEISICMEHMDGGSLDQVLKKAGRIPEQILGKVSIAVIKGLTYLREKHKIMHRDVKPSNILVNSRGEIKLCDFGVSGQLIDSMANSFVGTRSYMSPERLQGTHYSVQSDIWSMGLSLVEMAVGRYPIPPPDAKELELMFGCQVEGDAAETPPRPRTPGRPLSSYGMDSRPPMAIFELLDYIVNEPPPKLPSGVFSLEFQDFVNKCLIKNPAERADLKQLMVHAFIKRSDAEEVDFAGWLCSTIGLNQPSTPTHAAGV
# [10] = test system: Receptor-type tyrosine-protein kinase FLT3 (Homo sapiens), P36888 [D835V]
# [11] = test system: Receptor-type tyrosine-protein kinase FLT3 (Homo sapiens), P36888 [F691L]
# Mus musculus = experiment: Antitumor activity against human MOLM13 cells xenografted in SCID mouse assessed as increase in survival at 25 mg/kg, po qd administered on day 8 to 12 relative to vehicle-treated control; type: functional, MOLM-13
# [12] = target: Receptor-type tyrosine-protein kinase FLT3 (Homo sapiens, UniProt P36888, F691L); experiment: Inhibition of FLT3 ITD F691L mutant (unknown origin) phosphorylation expressed in HEK293T cells preincubated for 1 hr followed by FLT3 ligand addition for 5 mins by Western blot analysis; type: cell-based, HEK-293T
# [13] = target: Interleukin-1 receptor-associated kinase 4 (Homo sapiens) (UniProt Q9NWZ3); experiment: Inhibition of human IRAK4 at 0.1 uM relative to control
# Interleukin-1 receptor-associated kinase 4 (Homo sapiens), sequence (Q9NWZ3 whole entry): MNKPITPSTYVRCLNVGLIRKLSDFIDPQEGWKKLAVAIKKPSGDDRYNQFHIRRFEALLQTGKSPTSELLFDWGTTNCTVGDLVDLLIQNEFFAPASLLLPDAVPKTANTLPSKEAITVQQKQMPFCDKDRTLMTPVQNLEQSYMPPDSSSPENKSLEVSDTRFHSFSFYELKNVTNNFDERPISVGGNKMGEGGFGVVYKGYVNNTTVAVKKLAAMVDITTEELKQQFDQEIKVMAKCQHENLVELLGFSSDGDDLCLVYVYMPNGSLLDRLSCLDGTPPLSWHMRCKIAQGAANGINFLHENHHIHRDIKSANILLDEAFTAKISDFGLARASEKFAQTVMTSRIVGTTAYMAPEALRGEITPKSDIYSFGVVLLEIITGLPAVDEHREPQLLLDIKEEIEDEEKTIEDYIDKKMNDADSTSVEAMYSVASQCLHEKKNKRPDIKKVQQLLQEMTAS
# [14] = target: Receptor-type tyrosine-protein kinase FLT3 (Homo sapiens, UniProt P36888, ITD); experiment: Inhibition of FLT3 ITD mutant (unknown origin) phosphorylation expressed in HEK293T cells preincubated for 1 hr followed by FLT3 ligand addition for 5 mins by Western blot analysis; type: cell-based, HEK-293T
# [15] = target: Tyrosine-protein kinase CSK (Homo sapiens) (UniProt P41240); experiment: Inhibition of human CSK at 0.1 uM relative to control
# [16] = Oral bioavailability in ICR mouse at 10 mg/kg; type: ADME, organism-based; conditions: in vivo
# [17] = target: Receptor-type tyrosine-protein kinase FLT3 (Homo sapiens) (UniProt P36888); experiment: Inhibition of human FLT3 at 0.1 uM relative to control
# [18] = target: Serine/threonine-protein kinase Chk2 (Homo sapiens) (UniProt O96017); experiment: Inhibition of human CHK2 at 0.1 uM relative to control
# MV4-11 [19] = experiment: Antitumor activity against human MV4-11 cells xenografted in nude mouse assessed as tumor growth inhibition at 25 mg/kg, po qd administered on day 8 to 12 measured during compound dosing; type: functional, organism-based
# [20] = target: Dual specificity protein kinase CLK2 (Homo sapiens) (UniProt P49760); experiment: Inhibition of human CLK2 at 0.1 uM relative to control
# Dual specificity protein kinase CLK2 (Homo sapiens), sequence (P49760 whole entry, looked up): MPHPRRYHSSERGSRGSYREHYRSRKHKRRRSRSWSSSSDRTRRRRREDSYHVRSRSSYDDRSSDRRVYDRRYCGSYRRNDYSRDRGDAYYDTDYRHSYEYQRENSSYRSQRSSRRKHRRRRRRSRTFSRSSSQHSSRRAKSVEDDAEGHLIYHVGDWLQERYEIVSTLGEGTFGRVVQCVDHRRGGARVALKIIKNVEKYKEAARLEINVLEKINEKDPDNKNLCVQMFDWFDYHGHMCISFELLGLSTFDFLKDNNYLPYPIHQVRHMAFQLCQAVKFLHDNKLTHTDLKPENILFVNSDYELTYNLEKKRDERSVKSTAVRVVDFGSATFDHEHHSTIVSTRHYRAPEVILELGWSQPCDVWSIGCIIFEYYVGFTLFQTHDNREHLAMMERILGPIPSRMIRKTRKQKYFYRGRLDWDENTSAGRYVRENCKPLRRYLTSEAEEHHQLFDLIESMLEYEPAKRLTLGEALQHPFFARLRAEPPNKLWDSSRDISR
# [21] = target: Serine/threonine-protein kinase MRCK alpha (Homo sapiens) (UniProt Q5VT25); experiment: Inhibition of human MRCKA at 0.1 uM relative to control
# [22] = target: Serine/threonine-protein kinase mTOR (Homo sapiens) (UniProt P42345); experiment: Inhibition of human mTOR at 0.1 uM relative to control
# [23] = target: Aurora kinase B (Homo sapiens) (UniProt Q96GD4); experiment: Inhibition of human AURKB at 0.1 uM relative to control
# Aurora kinase B (Homo sapiens), sequence (Q96GD4 whole entry): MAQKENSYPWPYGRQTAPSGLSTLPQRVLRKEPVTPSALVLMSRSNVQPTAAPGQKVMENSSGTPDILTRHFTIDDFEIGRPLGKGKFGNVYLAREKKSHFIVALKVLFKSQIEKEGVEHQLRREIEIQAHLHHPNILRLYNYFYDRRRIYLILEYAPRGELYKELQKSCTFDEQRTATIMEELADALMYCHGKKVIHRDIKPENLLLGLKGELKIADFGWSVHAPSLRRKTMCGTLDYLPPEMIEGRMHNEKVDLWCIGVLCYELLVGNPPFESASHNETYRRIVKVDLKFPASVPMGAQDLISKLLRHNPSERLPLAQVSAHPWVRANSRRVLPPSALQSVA
# [24] = target: Tyrosine-protein kinase Lck (Homo sapiens) (UniProt P06239); experiment: Inhibition of human LCK at 0.1 uM relative to control
# [25] = AUC (0 to infinity) in ICR mouse at 10 mg/kg, po; type: ADME, organism-based; set-up: dose 10 mg/kg, time infinity, route oral; conditions: in vivo
# [26] = test system: Tyrosine-protein kinase ABL1 (Homo sapiens), P00519 [T315I]; experiment: Inhibition of human ABL1 T315I mutant at 0.1 uM relative to control
# [27] = target: Tyrosine-protein kinase receptor TYRO3 (Homo sapiens) (UniProt Q06418); experiment: Inhibition of human TYRO3 at 0.1 uM relative to control
# Tyrosine-protein kinase receptor TYRO3 (Homo sapiens), sequence (Q06418 whole entry): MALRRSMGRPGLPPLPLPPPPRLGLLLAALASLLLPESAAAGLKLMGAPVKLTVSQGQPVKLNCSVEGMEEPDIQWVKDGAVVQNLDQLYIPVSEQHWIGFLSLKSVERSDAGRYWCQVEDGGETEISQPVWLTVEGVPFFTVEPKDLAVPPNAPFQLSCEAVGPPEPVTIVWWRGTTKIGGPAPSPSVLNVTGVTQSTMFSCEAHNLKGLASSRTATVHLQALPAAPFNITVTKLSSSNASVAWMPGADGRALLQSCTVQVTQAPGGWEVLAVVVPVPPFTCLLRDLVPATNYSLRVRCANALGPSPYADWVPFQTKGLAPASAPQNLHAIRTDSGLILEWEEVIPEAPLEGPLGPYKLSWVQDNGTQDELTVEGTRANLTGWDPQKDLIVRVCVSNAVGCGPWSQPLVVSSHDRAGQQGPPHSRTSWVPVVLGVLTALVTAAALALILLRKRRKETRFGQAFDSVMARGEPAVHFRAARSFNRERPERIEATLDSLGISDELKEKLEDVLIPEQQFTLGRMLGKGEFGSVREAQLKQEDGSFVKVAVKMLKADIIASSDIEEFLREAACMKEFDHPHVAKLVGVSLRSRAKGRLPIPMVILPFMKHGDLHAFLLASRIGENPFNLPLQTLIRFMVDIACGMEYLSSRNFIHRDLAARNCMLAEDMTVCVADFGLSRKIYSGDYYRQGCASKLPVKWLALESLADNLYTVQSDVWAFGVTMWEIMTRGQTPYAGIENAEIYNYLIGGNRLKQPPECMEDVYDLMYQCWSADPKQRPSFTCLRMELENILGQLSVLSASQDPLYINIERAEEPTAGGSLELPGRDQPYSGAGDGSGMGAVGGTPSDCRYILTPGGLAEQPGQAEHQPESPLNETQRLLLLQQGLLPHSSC
# [28] = Volume of distribution at steady state in ICR mouse at 2 mg/kg, iv; type: ADME, organism-based; conditions: in vivo, read-out: Vdss
# [29] = Plasma clearance in ICR mouse at 2 mg/kg, iv; type: ADME, organism-based
# [30] = target: CDK2/Cyclin A2 (Homo sapiens) (UniProt P24941+P20248); experiment: Inhibition of human CDK2/cyclin A at 0.1 uM relative to control; type: protein-complex assay
# [31] = target: Tyrosine-protein kinase Blk (Homo sapiens) (UniProt P51451); experiment: Inhibition of human BLK at 0.1 uM relative to control
# [32] = target: Mast/stem cell growth factor receptor Kit (Homo sapiens) (UniProt P10721); experiment: Inhibition of human KIT at 0.1 uM relative to control
# [33] = target: RAC-alpha serine/threonine-protein kinase (Homo sapiens) (UniProt P31749); experiment: Inhibition of human AKT1 at 0.1 uM relative to control
# [34] = target: Tyrosine-protein kinase Lyn (Homo sapiens) (UniProt P07948); experiment: Inhibition of human LYNA at 0.1 uM relative to control
# Tyrosine-protein kinase Lyn (Homo sapiens), sequence (P07948 2-512 limits assumed): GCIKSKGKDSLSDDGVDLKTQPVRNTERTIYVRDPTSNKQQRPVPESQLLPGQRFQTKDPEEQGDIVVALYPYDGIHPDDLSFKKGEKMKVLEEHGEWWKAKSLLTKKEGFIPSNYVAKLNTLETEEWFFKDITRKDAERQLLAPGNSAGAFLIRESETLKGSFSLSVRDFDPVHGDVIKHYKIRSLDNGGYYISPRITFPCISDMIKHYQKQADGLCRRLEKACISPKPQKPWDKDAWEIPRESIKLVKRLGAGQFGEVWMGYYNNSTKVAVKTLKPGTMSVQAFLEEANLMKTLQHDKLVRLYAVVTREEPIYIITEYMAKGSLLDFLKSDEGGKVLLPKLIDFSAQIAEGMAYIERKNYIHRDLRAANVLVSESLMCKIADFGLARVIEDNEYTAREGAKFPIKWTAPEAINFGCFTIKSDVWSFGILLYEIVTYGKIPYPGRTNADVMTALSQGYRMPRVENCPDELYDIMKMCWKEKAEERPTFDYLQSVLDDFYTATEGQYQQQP
# [35] = target: Tyrosine-protein kinase Lyn (Homo sapiens) (UniProt P07948); experiment: Inhibition of human LYNB at 0.1 uM relative to control
# [36] = target: Aurora kinase A (Homo sapiens) (UniProt O14965); experiment: Inhibition of human AURKA at 0.1 uM relative to control
# Aurora kinase A (Homo sapiens), sequence (O14965 whole entry): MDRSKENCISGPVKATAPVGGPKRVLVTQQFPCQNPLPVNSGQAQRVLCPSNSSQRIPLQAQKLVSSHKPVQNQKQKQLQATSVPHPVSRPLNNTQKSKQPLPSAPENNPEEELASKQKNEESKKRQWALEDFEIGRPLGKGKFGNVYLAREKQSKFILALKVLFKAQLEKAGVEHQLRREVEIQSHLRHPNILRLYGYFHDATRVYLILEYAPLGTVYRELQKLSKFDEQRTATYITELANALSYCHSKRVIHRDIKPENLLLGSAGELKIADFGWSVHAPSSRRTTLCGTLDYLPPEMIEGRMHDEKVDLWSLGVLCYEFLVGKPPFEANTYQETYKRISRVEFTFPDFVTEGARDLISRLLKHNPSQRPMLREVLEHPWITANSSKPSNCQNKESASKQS
# [37] = target: High affinity nerve growth factor receptor (Homo sapiens) (UniProt P04629); experiment: Inhibition of human NTRK1 at 0.1 uM relative to control
# [38] = target: Tyrosine-protein kinase ABL1 (Homo sapiens) (UniProt P00519); experiment: Inhibition of human ABL1 at 0.1 uM relative to control
# [39] = target: Tyrosine-protein kinase Yes (Homo sapiens) (UniProt P07947); experiment: Inhibition of human YES1 at 0.1 uM relative to control
compound,measurement,setting,value
CCc1cc(NC(=O)Nc2ccc(-c3cnc(Nc4cc(N5CCN(CC)CC5)nc(C)n4)s3)cc2)no1,Activity,MV4-11 [1],Active
same,inhibition,[2],-8%
same,inhibition,[3],44%
same,inhibition,[4],63%
same,IC50,[5],10 nM
same,inhibition,[6],2%
same,inhibition,[7],9%
same,inhibition,[8],93%
same,inhibition,[9],41%
same,GI50,[10],4 nM
same,GI50,[11],70 nM
same,Activity,Mus musculus,90%
same,IC50,[12],10 nM
same,inhibition,[13],61%
same,IC50,[14],10 nM
same,inhibition,[15],23%
same,bioavailability,[16],35%
same,inhibition,[17],98%
same,inhibition,[18],-3%
same,TGI,MV4-11 [19],Active
same,inhibition,[20],-7%
same,inhibition,[21],0%
same,inhibition,[22],-7%
same,inhibition,[23],85%
same,inhibition,[24],92%
same,AUC(0-inf),[25],942 ng·h/mL
same,inhibition,[26],51%
same,inhibition,[27],28%
same,Vd,[28],21 L/kg
same,clearance,[29],82 mL/min/kg
same,inhibition,[30],4%
same,inhibition,[31],78%
same,inhibition,[32],64%
same,inhibition,[33],0%
same,inhibition,[34],96%
same,inhibition,[35],88%
same,inhibition,[36],96%
same,inhibition,[37],82%
same,inhibition,[38],66%
same,inhibition,[39],72%
